Data taken from US20090047244A1, “MACROCYCLIC SERINE PROTEASE INHIBITORS I” (Idenix Pharmaceuticals, Inc., priority 2007, published 2009).
Read-outs that look alike come from different tables or passages of the source.

Details: rcm bond

Question: With `CCOC(=O)[C@@]12C[C@H]1C=CCCCCN(C)C(=O)N[C@@H](CCOc1cc(-c3ccccc3)nc3cc(OC)ccc13)C(=O)N2` as the compound, how does the ring closure, yield of all isomers (from C=CCCCCN(C)C(=O)N[C@@H](CCOc1cc(-c2ccccc2)nc2cc(OC)ccc12)C(=O)N[C@]1(C(=O)OCC)C[C@H]1C=C, Hoveyda-Grubbs 1st generation, DCM, 1.6 mM, 40.0 °C, 16.0 h) read?
Answer: 22%

Question: With `CCOC(=O)[C@@]12C[C@H]1C=CCCCCN(C)C(=O)N[C@@H](CO[Si](C)(C)C(C)(C)C)C(=O)N2` as the compound, how does the ring closure, yield of all isomers (from C=CCCCCN(C)C(=O)N[C@@H](CO[Si](C)(C)C(C)(C)C)C(=O)N[C@]1(C(=O)OCC)C[C@H]1C=C, Hoveyda-Grubbs 1st generation, 1,2-dichloroethane, 9.9 mM, 70.0 °C, 16.0 h) read?
Answer: 48.1%

Question: For `COc1ccc2c(OCC[C@@H]3NC(=O)N(C)CCCCC=C[C@@H]4C[C@@]4(C(=O)NS(=O)(=O)C4CC4)NC3=O)cc(-c3ccccc3)nc2c1`, which ring closure, yield of all isomers (from C=CCCCCN(C)C(=O)N[C@@H](CCOc1cc(-c2ccccc2)nc2cc(OC)ccc12)C(=O)N[C@]1(C(=O)NS(=O)(=O)C2CC2)C[C@H]1C=C, Hoveyda-Grubbs 2nd generation, DCM, 1.5 mM, 100.0 °C, 1.0 h) is on record?
Answer: 7.9%

Question: With `CCOC(=O)[C@@]12C[C@H]1/C=C\CCCCN(C)C(=O)N[C@@H](CCO[Si](C)(C)C(C)(C)C)C(=O)N2` as the compound, how does the ring closure, yield of all isomers (from C=CCCCCN(C)C(=O)N[C@@H](CCO[Si](C)(C)C(C)(C)C)C(=O)N[C@]1(C(=O)OCC)C[C@H]1C=C, Hoveyda-Grubbs 1st generation, DCM, 1.96 mM, 40.0 °C, 24.0 h) read?
Answer: 50%

Question: For `CCOC(=O)[C@@]12C[C@H]1C=CCCCCCN(C)C(=O)N[C@@H](CCOc1cc(-c3ccccc3)nc3cc(OC)ccc13)C(=O)N2`, which ring closure, yield of all isomers (from C=CCCCCCN(C)C(=O)N[C@@H](CCOc1cc(-c2ccccc2)nc2cc(OC)ccc12)C(=O)N[C@]1(C(=O)OCC)C[C@H]1C=C, Hoveyda-Grubbs 1st generation, DCM, 1.6 mM, 40.0 °C, 16.0 h) is on record?
Answer: 64%
